PubChem BioAssay AID179 (DTP/NCI, 2004)
Calls of active or inactive are those of the source.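 How the source made its calls: active means compounds giving half or more protection of infected cells from virus-caused growth loss, again on retest; inactive means the rest.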 Where a SMILES comes first, the peptide text is derived from it.

Test system: CEM cells HIV-1 protection, formazan growth assay
Test: NCI AIDS Antiviral Assay
Conditions: for IC50: measured here: growth of uninfected CEM cells
In short: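 Human CEM cells, uninfected and HIV-1-infected, exposed to five drug concentrations; growth measured by soluble formazan assay and scored as percent protection from infection, with protecting compounds retested.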

CC(NC(=O)CNC(=O)C(N)CO)C(=O)NC(CCC(N)=O)C(=O)NC(CCC(=O)O)C(=O)NC(C)C(=O)NC(CCC(=O)O)C(=O)NC(CCCCN)C(=O)NC(CCC(N)=O)C(=O)NC(CCCN=C(N)N)C(=O)NC(C(=O)NC(CC(N)=O)C(=O)NC(C)C(=O)NC(Cc1cnc[nH]1)C(=O)NC(CO)C(=O)O)C(C)O (configuration not stated) (H-SGAQEAEKQRTNAHS-OH; configuration not given here)
EC50: > 100 µM | IC50: > 100 µM

Cc1cc(C)c2c(c1)CC(C)(C)C(=O)OC2=O
EC50: > 112 µM | IC50: > 112 µM

CC(=O)Nc1ccc(/C=C(\C#N)c2ccccc2)cc1
EC50: > 200 µM | IC50: > 200 µM

CCCC(O)S(=O)(=O)O (configuration not stated)
EC50: > 200 µM | IC50: > 200 µM

C(=C\c1ccccc1)/Cn1nc(-c2ccccc2)nc1-c1cnccn1
EC50: 145 µM | IC50: > 200 µM

CC(C)N(C(=O)C12C3(C(=O)OC(C)(C)C)C4C5(C#N)C3C1(C(=O)OC(C)(C)C)C5C42C(=O)OC(C)(C)C)C(C)C (configuration not stated)
EC50: > 200 µM | IC50: 23.4 µM

Cc1ccc(S(=O)(=O)Oc2nc3nc4ccccc4nc3nc2OS(=O)(=O)c2ccc(C)cc2)cc1
EC50: > 200 µM | IC50: 102 µM

O=C(C[n+]1ccccc1)N=N/C(C(=O)Nc1c(Cl)c(O)c2ccccc2c1O)=C1/C(=O)Oc2cc(O)ccc2C1=O
EC50: > 22.4 µM | IC50: 12 µM

COC(=O)c1c(O)c2c(c3c1OC(C)(C)CC3)OC(C)(C)CC2
EC50: > 200 µM | IC50: 93.3 µM

O=C(/C=C/NC(=O)OCc1ccccc1)OCc1ccccc1
EC50: > 200 µM | IC50: > 200 µM

CC(=O)N(C(C)=O)n1c(Cc2ccc(Cl)cc2)nn(C(C)=O)c1=O
EC50: > 200 µM | IC50: > 200 µM

O=C(/C=C/c1ccncc1)c1ccccc1
EC50: > 324 µM | IC50: 6.03 µM

[C-]#[O+].[C-]#[O+].[C-]#[O+].[C-]#[O+].[Mo].c1ccc(P(CCP(CCP(c2ccccc2)c2ccccc2)c2ccccc2)CCP(c2ccccc2)c2ccccc2)cc1 (configuration not stated)
EC50: > 0.617 µM | IC50: > 0.617 µM

COC(=O)c1nc2[nH]n(-c3ccccc3)c(=O)c2c2c1CCCCCCCCCC2
EC50: > 123 µM | IC50: 115 µM

CCOC(=O)C1(Sc2ccccc2)CCC2c3[nH]c4ccccc4c3CCN2C1=O (configuration not stated)
EC50: > 12.3 µM | IC50: > 12.3 µM

O=C(NC12CC3CC(CC(C3)C1)C2)C(=O)c1c[nH]c2ccc([N+](=O)[O-])cc12
EC50: > 200 µM | IC50: 30.2 µM

O=C(O)c1ccc(/C=N\N(CCO)C2=NCCN2)cc1
EC50: > 200 µM | IC50: > 200 µM

CC(=O)OCC12CCC(C)=CC1OC1C3(O)N=C(C)OC3C2(C)C12CO2 (configuration not stated)
EC50: > 200 µM | IC50: 0.0661 µM

CC(C)CCCC(C)C1CCC2C3CCC(=O)C(C)(CCCNCCO)C3CCC12C (configuration not stated)
EC50: > 20 µM | IC50: 2.88 µM

COc1ccccc1/C=C1\Sc2scc(-c3cccc([N+](=O)[O-])c3)[n+]2C1=O
outcome: inactive

S=c1[nH]nc(Cc2ccccc2)c(=S)[nH]1
outcome: inactive

CC(=O)Nc1ccc(OC(C)(C)C)cc1
EC50: > 1200 µM | IC50: > 1200 µM

Brc1ccc2[nH]cc(/C=N/N3CCCCCC3)c2c1
EC50: > 112 µM | IC50: > 112 µM

COC(=O)C(C(=O)C(=O)Nc1c(Cl)cc([N+](=O)[O-])cc1Cl)c1csc(-n2nc(C3=CCCCC3)cc2-c2ccccc2)n1 (configuration not stated)
EC50: > 107 µM | IC50: > 107 µM

CNC(=O)O/N=C/c1cccc(/C=N/OC(=O)NC)c1
EC50: > 200 µM | IC50: > 200 µM

C/C=N\n1c(C)n[nH]c1=O
EC50: > 200 µM | IC50: > 200 µM

Cc1c(N/C=C(\C#N)C(=O)c2ccc(Cl)cc2)c(=O)n(-c2ccccc2)n1C
EC50: > 200 µM | IC50: 72.4 µM

CC(C)=CCc1ccc2[nH]c3c(c2c1)C(=O)C(=O)C(C)=C3C(O)C(C)O (configuration not stated)
EC50: > 200 µM | IC50: 1.95 µM

CNC(=S)Nc1ccc(OC)c2ccccc12
EC50: > 200 µM | IC50: > 200 µM

O=C1CN(c2ccccc2)CC(=O)N2Cc3ccccc3CN12
EC50: > 44.7 µM | IC50: > 44.7 µM

Cn1c2ccccc2c2c(=O)[nH]c(=O)[nH]c21
EC50: > 200 µM | IC50: > 200 µM

O=c1c(O)c(-c2ccc(Cl)cc2)oc2ccccc12
EC50: > 200 µM | IC50: 4.07 µM
